Source: patent US10266526B2, “Substituted 1,2,3-triazoles as SMYD inhibitors for treating cancer” (EPIZYME, INC., priority 2014, dated 2019)
Counter-ions that a name gives are not always drawn. Like-named read-outs stand apart in the source and are kept apart here.

Target: SMYD3 (Homo sapiens (Human), UniProt Q9H7B4)
Assay: SMYD3 biochemical assay (SMYD3 enzyme assay on MEKK2 protein substrate, 3H-SAM scintillation proximity assay)
Source text: S-adenosylmethionine (SAM), S-adenosylhomocysteine (SAH), Tris, Tween20, dimethylsulfoxide (DMSO), bovine skin gelatin (BSG), and Tris(2-carboxyethyl)phosphine hydrochloride solution (TCEP) were purchased from Sigma-Aldrich at the highest level of purity possible. ^3H-SAM was purchase from American Radiolabeled Chemicals with a specific activity of 80 Ci/mmol. 384-well opaque white OptiPlates and SPA beads (Perkin Elmer, catalog # RPNQ0013) were purchased from PerkinElmer.
N-terminally GST-tagged MEKK2 (MAP3K2) protein corresponding to reference sequence AAF63496.3 was purchased from Life Technologies (catalog # PV4010). This protein was expressed in High Five insect cells and purified to >85% purity. Protein identity was confirmed by MS/MS analysis after proteolytic digestion. The protein sequence used was:
Full-length human SMYD3 isoform 1 (BAB86333) was inserted into a modified pET21b plasmid containing a His6 tag and TEV and SUMO cleavage sites.
E. coli (BL21 codonplus RIL strain, Stratagene) were transformed with plasmid pEPZ553 by mixing competent cells and plasmid DNA and incubating on ice for 30 minutes followed by heat shock at 42° C. for 1 minute and cooling on ice for 2 minutes. Transformed cells were grown and selected on LB agar with 100 μg/mL ampicillin and 17 μg/mL chloramphenicol at 37° C. overnight. A single clone was used to inoculate 200 mL of LB medium with 100 μg/mL ampicillin and 17 μg/mL chloramphenicol and incubated at 37° C. on an orbital shaker at 180 rpm. Once in log growth, the culture was diluted 1:100 into 2 L of LB medium and grown until OD600 was about 0.3 after which the culture was incubated at 15° C. and 160 rpm. Once OD600 reached about 0.4, IPTG was added to a final concentration of 0.1 mM and the cells were grown overnight at 15° C. and 160 rpm. Cells were harvested by centrifugation at 8000 rpm, for 4 minutes at 4° C. and stored at −80° C. for purification.
The column was washed with Buffer B (Buffer A plus 20 mM imidazole) and His-tagged SMYD3 was eluted with Buffer C (Buffer A plus 300 mM imidazole). The His tag, TEV and SUMO cleavage sites were removed generating native SMYD3 by addition of ULP1 protein at a ratio of 1:200 (ULP1:SMYD3). Imidazole was removed by dialysis overnight in Buffer A. The dialyzed solution was applied to a second Nickel column and the native SMYD3 protein was collected from the column flow-through. The flow-through was dialyzed in Buffer D (25 mM Tris, 5% glycerol, 5 mM β-mercaptoethanol, 50 mM NaCl, pH7.8) and ULP1 was removed using a Q sepharose fast flow column.
General Procedure for SMYD3 Enzyme Assays on MEKK2 Protein Substrate
The assays were all performed in a buffer consisting of 25 mM Tris-Cl pH 8.0, 1 mM TCEP, 0.005% BSG, and 0.005% Tween 20, prepared on the day of use. […] DMSO (1 ul) was added to Columns 11, 12, 23, 24, rows A-H for the maximum signal control and 1 ul of SAH, a known product and inhibitor of SMYD3, was added to columns 11, 12, 23, 24, rows I-P for the minimum signal control. A cocktail (40 ul) containing the SMYD3 enzyme was added by Multidrop Combi (Thermo-Fisher). The compounds were allowed to incubate with SMYD3 for 30 min at room temperature, then a cocktail (10 ul) containing SAM and MEKK2 was added to initiate the reaction (final volume=51 ul). […] The assays were stopped by the addition of non-radiolabeled SAM (10 ul) to a final concentration of 100 uM, which dilutes the ^3H-SAM to a level where its incorporation into MEKK2 is no longer detectable. Radiolabeled MEKK2 was detected using a scintillation proximity assay (SPA). 10 uL of a 10 mg/mL solution of SPA beads in 0.5 M citric acid was added and the plates centrifuged at 600 rpm for 1 min to precipitate the radiolabeled MEKK2 onto the SPA beads.

[1] = read-out: SMYD3 Biochem IC50 (μM)*
[2] = Table 1A, average of n = 1 to n = 50, read-out: SMYD3 Biochem IC50

Sequence of SMYD3 (Q9H7B4 whole entry): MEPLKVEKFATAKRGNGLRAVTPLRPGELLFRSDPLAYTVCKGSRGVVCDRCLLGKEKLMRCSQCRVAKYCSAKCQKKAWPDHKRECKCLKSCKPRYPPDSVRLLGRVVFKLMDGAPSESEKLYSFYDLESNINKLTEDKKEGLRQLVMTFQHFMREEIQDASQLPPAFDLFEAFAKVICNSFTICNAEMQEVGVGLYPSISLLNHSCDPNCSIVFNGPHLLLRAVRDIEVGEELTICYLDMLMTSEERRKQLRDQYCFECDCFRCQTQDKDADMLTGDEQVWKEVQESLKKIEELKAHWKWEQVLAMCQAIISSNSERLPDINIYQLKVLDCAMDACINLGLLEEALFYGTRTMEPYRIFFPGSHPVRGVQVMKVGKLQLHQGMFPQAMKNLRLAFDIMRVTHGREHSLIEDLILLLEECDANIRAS

| IC50 (read-out: SMYD3 Biochem IC50) [µM] | IC50 [1] [µM] | SMILES | other results |
| --- | --- | --- | --- |
| > 100 | – | CC(=O)Nc1ccc(C(=O)NC(C)C2CCN(C(=O)[C@H](C)N)CC2)nc1 (stereo partly drawn) [compound 462, N-(1-(1-(L-alanyl)piperidin-4-yl)ethyl)-5-acetamidopicolinamide] | – |
| > 100 | – | CC(NC(=O)c1n[nH]c2ccccc12)C1CCN(C(=O)[C@H](C)N)CC1 (stereo partly drawn) [compound 312, N-(1-(1-(L-alanyl)piperidin-4-yl)ethyl)-1H-indazole-3-carboxamide] | – |
| – | 92.2 | CCOC(=O)CCCC(=O)N[C@H]1CC[C@H](N)CC1 [compound 108, ethyl 5-(((1r,4r)-4-aminocyclohexyl)amino)-5-oxopentanoate] | – |
| – | 112 | CCn1ccc(C(=O)N[C@H]2CC[C@H](N)CC2)n1 [compound 13, N-((1r,4r)-4-aminocyclohexyl)-1-ethyl-1H-pyrazole-3-carboxamide] | – |
| – | – | CCc1cnc(C(=O)NC(C)C2CCN(C(=O)[C@H](C)N)CC2)s1 (stereo partly drawn) [compound 552, N-(1-(1-(L-alanyl)piperidin-4-yl)ethyl)-5-ethylthiazole-2-carboxamide] | IC50 [2]: 6.44 µM |
| > 100 | – | CC(NC(=O)c1cc2ccccc2n1C)C1CCN(C(=O)[C@H](C)N)CC1 (stereo partly drawn) [compound 244, N-(1-(1-(L-alanyl)piperidin-4-yl)ethyl)-1-methyl-1H-indole-2-carboxamide] | – |
| – | 35.5 | N[C@@H](Cc1ccc(O)cc1)C(=O)N1CCC(NC(=O)c2ccc3c(c2)NC(=O)C3)CC1 [compound 72, N-(1-(L-tyrosyl)piperidin-4-yl)-2-oxoindoline-6-carboxamide] | – |
| > 100 | – | COc1cncc(C(=O)N[C@H]2CC[C@H](N)CC2)n1 [compound 356, N-((1r,4r)-4-aminocyclohexyl)-6-methoxypyrazine-2-carboxamide] | – |
| – | – | Cc1n[nH]c(C(=O)NC(C)C2CCN(C(=O)[C@H](C)N)CC2)n1 (stereo partly drawn) [compound 549, N-(1-(1-(L-alanyl)piperidin-4-yl)ethyl)-3-methyl-1H-1,2,4-triazole-5-carboxamide] | IC50 [2]: > 50 µM |
| – | 16.4 | N[C@H]1CC[C@H](NC(=O)c2nnc[nH]2)CC1 [compound 127, N-((1r,4r)-4-aminocyclohexyl)-4H-1,2,4-triazole-3-carboxamide] | – |
| – | 50 | CC(NC(=O)c1ccc2c(c1)NC(=O)CC2)C1CCN(C(=O)[C@H](C)N)CC1 (stereo partly drawn) [compound 92, N-(1-(1-(L-alanyl)piperidin-4-yl)ethyl)-2-oxo-1,2,3,4-tetrahydroquinoline-7-carboxamide] | – |
| > 100 | – | CC(NC(=O)c1cnccc1N)C1CCN(C(=O)[C@H](C)N)CC1 (stereo partly drawn) [compound 247, N-(1-(1-(L-alanyl)piperidin-4-yl)ethyl)-4-aminonicotinamide] | – |
| > 100 | – | NCCC(=O)N[C@H]1CC[C@H](NC(=O)C2C[C@@H]3C=C[C@H]2C3)CC1 (stereo partly drawn) [compound 416, (1R,4R)-N-((1r,4R)-4-(3-aminopropanamido)cyclohexyl)bicyclo[2.2.1]hept-5-ene-2-carboxamide] | – |
| – | 14 | Cc1cc(C(=O)N[C@H]2CC[C@H](N)CC2)n(Cc2ccccc2)n1 [Cpd. No. 29, N-((1r,4r)-4-aminocyclohexyl)-1-benzyl-3-methyl-1H-pyrazole-5-carboxamide Hydrochloride] | – |
| – | 56.3 | CCOC(=O)C1(CNC(=O)c2ccc3c(c2)CC(=O)N3)CCNCC1 [compound 131, ethyl 4-((2-oxoindoline-5-carboxamido)methyl)piperidine-4-carboxylate] | – |
| 15.1 | – | NCCC(=O)N[C@H]1CC[C@H](NC(=O)C2=NNC(=O)CC2)CC1 [compound 481, N-((1r,4r)-4-(3-aminopropanamido)cyclohexyl)-6-oxo-1,4,5,6-tetrahydropyridazine-3-carboxamide] | – |
| > 100 | – | Cn1nc(C(C)(C)C)cc1C(=O)N[C@H]1CC[C@H](NC(=O)CCN)CC1 [compound 351, N-((1r,4r)-4-(3-aminopropanamido)cyclohexyl)-3-(tert-butyl)-1-methyl-1H-pyrazole-5-carboxamide] | – |

| IC50 (read-out: SMYD3 Biochem IC50) [µM] | IC50 [1] [µM] | SMILES | other results |
| --- | --- | --- | --- |
| – | 20.5 | CCc1ccnc(C(=O)N[C@H]2CC[C@H](N)CC2)c1 [compound 38, N-((1r,4r)-4-aminocyclohexyl)-4-ethylpicolinamide] | – |
| > 100 | – | N[C@H]1CC[C@H](NC(=O)c2ccncc2F)CC1 [compound 308, N-((1r,4r)-4-aminocyclohexyl)-3-fluoroisonicotinamide] | – |
| 51.1 | – | CC(NC(=O)Cc1cccc(C(F)(F)F)c1)C1CCN(C(=O)[C@H](C)N)CC1 (stereo partly drawn) [compound 476, N-(1-(1-(L-alanyl)piperidin-4-yl)ethyl)-2-(3-(trifluoromethyl)phenyl)acetamide] | – |
| > 100 | – | N[C@H]1CC[C@H](NC(=O)Cc2ccc3c(c2)CC(=O)N3)CC1 [compound 448, N-((1r,4r)-4-aminocyclohexyl)-2-(2-oxoindolin-5-yl)acetamide] | – |
| > 100 | – | Cn1ncc2ccc(C(=O)N[C@H]3CC[C@H](NC(=O)CCN)CC3)cc21 [compound 325, N-((1r,4r)-4-(3-aminopropanamido)cyclohexyl)-1-methyl-1H-indazole-6-carboxamide] | – |
| > 50 | – | CC(NC(=O)c1cncc(O)c1)C1CCN(C(=O)[C@H](C)N)CC1 (stereo partly drawn) [compound 513, N-(1-(1-(L-alanyl)piperidin-4-yl)ethyl)-5-hydroxynicotinamide] | – |
| > 100 | – | Cc1cnccc1C(=O)N[C@H]1CC[C@H](N)CC1 [compound 380, N-((1r,4r)-4-aminocyclohexyl)-3-methylisonicotinamide] | – |
| – | > 100 | Cc1n[nH]c(C)c1C(=O)NC(C)C1CCN(C(=O)[C@H](C)N)CC1 (stereo partly drawn) [compound 180, N-(1-(1-(L-alanyl)piperidin-4-yl)ethyl)-3,5-dimethyl-1H-pyrazole-4-carboxamide] | – |
| – | 31.3 | CCc1cncc(C(=O)N[C@H]2CC[C@H](N)CC2)c1 [compound 22, N-((1r,4r)-4-aminocyclohexyl)-5-ethylnicotinamide] | – |
| > 100 | – | NCCC(=O)N[C@H]1CC[C@H](NC(=O)[C@H]2C[C@H](O)CN2)CC1 [compound 434, (2R,4S)-N-((1r,4r)-4-(3-aminopropanamido)cyclohexyl)-4-hydroxypyrrolidine-2-carboxamide] | – |
| – | – | Cc1cc2cc(C(=O)NC(C)C3CCN(C(=O)[C@H](C)N)CC3)ccc2[nH]1 (stereo partly drawn) [compound 538, N-(1-(1-(L-alanyl)piperidin-4-yl)ethyl)-2-methyl-1H-indole-5-carboxamide] | IC50 [2]: > 50 µM |
| > 100 | – | N[C@H]1CC[C@H](NC(=O)c2ccc(O)nn2)CC1 [compound 271, N-((1r,4r)-4-aminocyclohexyl)-6-hydroxypyridazine-3-carboxamide] | – |
| – | 62.5 | Nc1ccc2cc(C(=O)N[C@H]3CC[C@H](N)CC3)ccc2c1 [compound 75, 6-amino-N-((1r,4r)-4-aminocyclohexyl)-2-naphthamide] | – |
| > 100 | – | CC(NC(=O)c1ccc(Cl)cc1C(F)(F)F)C1CCN(C(=O)[C@H](C)N)CC1 (stereo partly drawn) [compound 263, N-(1-(1-(L-alanyl)piperidin-4-yl)ethyl)-4-chloro-2-(trifluoromethyl)benzamide] | – |
| – | > 100 | CC(NC(=O)c1ccc2ccccc2n1)C1CCN(C(=O)[C@H](C)N)CC1 (stereo partly drawn) [compound 162, N-(1-(1-(L-alanyl)piperidin-4-yl)ethyl)quinoline-2-carboxamide] | – |
| > 100 | – | COc1ccc2cc(C(=O)NC(C)C3CCN(C(=O)[C@H](C)N)CC3)ccc2c1 (stereo partly drawn) [compound 220, N-(1-(1-(L-alanyl)piperidin-4-yl)ethyl)-6-methoxy-2-naphthamide] | – |
